Test results taken from patent publication US20240384268A1, “Oligonucleotides” (Hudson Institute of Medical Research, priority 2021, published 2024).

Target: T1, human TLR9 (Homo sapiens, UniProt Q9NR96)
T1 construct: HA; host or cells: 293XL-hTLR9-HA (HEK293)
T1 sequence (Q9NR96 26-1032): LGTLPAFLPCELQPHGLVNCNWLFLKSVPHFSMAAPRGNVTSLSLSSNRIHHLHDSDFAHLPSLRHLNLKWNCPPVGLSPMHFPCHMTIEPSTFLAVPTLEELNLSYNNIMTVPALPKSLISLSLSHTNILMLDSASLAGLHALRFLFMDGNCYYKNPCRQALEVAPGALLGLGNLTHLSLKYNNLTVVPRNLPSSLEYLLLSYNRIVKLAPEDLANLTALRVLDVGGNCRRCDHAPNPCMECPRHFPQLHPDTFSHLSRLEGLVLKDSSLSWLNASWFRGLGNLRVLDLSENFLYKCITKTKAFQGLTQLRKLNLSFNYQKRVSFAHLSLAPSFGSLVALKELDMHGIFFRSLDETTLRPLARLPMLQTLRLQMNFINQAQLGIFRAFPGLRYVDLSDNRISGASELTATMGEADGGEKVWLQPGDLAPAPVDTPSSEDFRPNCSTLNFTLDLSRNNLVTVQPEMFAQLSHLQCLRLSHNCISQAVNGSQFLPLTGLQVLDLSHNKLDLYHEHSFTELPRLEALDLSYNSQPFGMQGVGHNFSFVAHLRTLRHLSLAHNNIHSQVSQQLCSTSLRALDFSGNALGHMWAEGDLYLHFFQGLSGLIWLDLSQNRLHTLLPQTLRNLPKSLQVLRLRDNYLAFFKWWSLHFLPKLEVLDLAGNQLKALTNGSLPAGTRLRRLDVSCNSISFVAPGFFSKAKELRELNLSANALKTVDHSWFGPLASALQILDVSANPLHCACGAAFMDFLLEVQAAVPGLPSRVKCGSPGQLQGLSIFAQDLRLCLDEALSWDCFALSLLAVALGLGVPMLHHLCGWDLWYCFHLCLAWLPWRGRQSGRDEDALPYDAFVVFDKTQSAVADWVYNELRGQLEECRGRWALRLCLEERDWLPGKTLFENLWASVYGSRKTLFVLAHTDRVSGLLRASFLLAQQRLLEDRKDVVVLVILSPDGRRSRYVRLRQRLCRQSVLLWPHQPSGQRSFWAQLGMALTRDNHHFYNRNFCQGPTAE
Assay: HEK-TLR9 NF-κB-luciferase reporter, ODN2006 stimulation
Type: cell-based
Conditions: averaged NF-κB-Luciferase relative to ODN2006 condition; for TLR9 100 nM: MOE-modified ASO at 100 nM; for TLR9 500 nM: MOE-modified ASO at 500 nM

Sequence	TLR9 100 nM	TLR9 500 nM
GTCTTGGCTTCGTGGAGCAG (antisense; 2'-MOE modified, pattern not given here) [MB21D1-520 MOE]	0.709	0.599
GGTGTCCTTGCACGTGGCTT (antisense; 2'-MOE modified, pattern not given here) [EGFR-1016 MOE]	1.064	0.714
ACCCACTTGGCAGACCATCA (antisense; 2'-MOE modified, pattern not given here) [CTNN2B-1575 MOE]	0.725	0.556
GCCGCTTTTCTGTCTGGTTC (antisense; 2'-MOE modified, pattern not given here) [CTNN2B-311 MOE]	0.684	1.018
GGAGATTTCAGAGCAGCTTC (antisense; 2'-MOE modified, pattern not given here) [EGFR-4885 MOE]	0.541	0.381
CACCCACTTGGCAGACCATC (antisense; 2'-MOE modified, pattern not given here) [CTNN2B-1576 MOE]	0.665	0.677
CCAACACTTCGTGGGGTCCT (antisense; 2'-MOE modified, pattern not given here) [HPRT-666 MOE]	0.612	0.600
GAGTCTCTGGAGCTTCCTCT (antisense; 2'-MOE modified, pattern not given here) [CAMSAP1-2456 MOE]	0.594	0.127
TCAAAGGACTGAGGAAAGGG (antisense; 2'-MOE modified, pattern not given here) [CAMSAP1-6273 MOE]	0.265	0.040
CTGTGATCTTGACATGCTGC (antisense; 2'-MOE modified, pattern not given here) [EGFR-2790 MOE]	0.506	0.298
TAGGCACTTTGCCTCCTTCT (antisense; 2'-MOE modified, pattern not given here) [EGFR-2859 MOE]	0.808	0.914
TTGCCATGCTGGCTCGGACT (antisense; 2'-MOE modified, pattern not given here) [CAMSAP1-2584 MOE]	0.516	0.534
GCGGAGGTCTTGGCTTCGTG (antisense; 2'-MOE modified, pattern not given here) [MB21D1-526 MOE]	0.682	0.246
CAGATAGCACCTTCAGCACT (antisense; 2'-MOE modified, pattern not given here) [CTNN2B-1294 MOE]	0.583	0.484
GTCCTTGCACGTGGCTTCGT (antisense; 2'-MOE modified, pattern not given here) [EGFR-1013 MOE]	0.682	0.602
GATGCTCCTCGGTCTCCCTT (antisense; 2'-MOE modified, pattern not given here) [CAMSAP1-1850 MOE]	0.792	0.196
ACTGACTGTCTTGAGGGTTC (antisense; 2'-MOE modified, pattern not given here) [MB21D1-1483 MOE]	0.424	0.291
GAGGTCTTGGCTTCGTGGAG (antisense; 2'-MOE modified, pattern not given here) [MB21D1-523 MOE]	0.888	0.650
TGTCTTCATCGGCCCTGCCT (antisense; 2'-MOE modified, pattern not given here) [CAMSAP1-2112 MOE]	0.697	0.480
TTGGCTCGGCTTGCCTACTT (antisense; 2'-MOE modified, pattern not given here) [CAMSAP1-5594 MOE]	0.705	0.445
GCGTATTATAGCCGATTAAC (antisense; 2'-MOE modified, pattern not given here) [NC1 2′MOE]	0.460	0.064
GATGGCCTCCCATCTCCTTC (antisense; 2'-MOE modified, pattern not given here) [HPRT-329 MOE]	0.662	1.268
